In series [1] the test system is LX-2. The series can be described thus: Anti-hepatic fibrosis activity in human LX2 cells assessed as inhibition of TGFbeta1-induced collagen I expression at 20 to 40 uM measured after 48 hrs by western blot analysis. Type of series: functional, cell-based. The settings on record: dose 20-40 µM. Background: Immunoblotting shows a protein as a band on a membrane.
In series [2] the test system is LX-2. As to the kind of experiment: Anti-hepatic fibrosis activity in human LX2 cells assessed as inhibition of TGFbeta1-induced alpha-SMA expression at 20 to 40 uM measured after 48 hrs by western blot analysis. Type of series: functional, cell-based. The settings on record: dose 20-40 µM.
The test system of series [3] is LX2. As to the kind of experiment: Inhibition of TGF-beta1/Smad2/3 signaling in TGF-beta1-stimulated human LX-2 cells assessed as reduction in Smad2 phosphorylation at 20 to 40 uM by western blot analysis. In kind it is cell-based. The settings on record: dose 20-40 µM.
The subject of series [4] is LX2. The series can be described thus: Inhibition of TGF-beta1/Smad2/3 signaling in TGF-beta1-stimulated human LX-2 cells assessed as reduction in Smad2/3 translocation from cytoplasm to nucleus at 40 uM by DAPI staining based fluorescence analysis. Type of series: cell-based.
Series [5] is described as follows: Cytotoxicity against human LX2 cells at 20 to 40 uM. In kind it is toxicity, cell-based. Particulars: lx-2, 40 µM, dose 20-40 µM.
Series [6] deals with LX-2. As to the kind of experiment: Anti-hepatic fibrosis activity in human LX2 cells assessed as inhibition of TGFbeta1-induced fibronectin expression measured after 48 hrs by immunofluorescence analysis. The settings on record: dose 20-40 µM. Type of series: functional, cell-based.
Series [7] concerns LX2. As to the kind of experiment: Inhibition of TGF-beta1/Smad2/3 signaling in TGF-beta1-stimulated human LX-2 cells assessed as reduction in Smad3 phosphorylation at 20 to 40 uM by western blot analysis. In kind it is cell-based. The settings on record: dose 20-40 µM.

Data on 1 molecule can be found in ChEMBL document CHEMBL5233292, “Biscroyunoid A, an Anti-Hepatic Fibrotic 19-nor-Clerodane Diterpenoid Dimer with a C-16-C-12' Linkage from Croton yunnanensis” (J Nat Prod, 2023).

Calls of active or inactive are those of the source. The rule behind the calls is not given here.

Consider `COC(=O)C1=CC[C@H]2[C@@]3(CC[C@@H](C)[C@]24C[C@@H](c2occc2[C@H]2C[C@@]56[C@H](O2)O[C@]2(CC[C@H]5C)C(C(=O)OC)=CCC[C@H]62)c2ccoc2[C@@H]4O3)C1`, for which the result in series [1] and in series [2] was Active. Moreover, the inhibition entry in series [3], in series [4] and in series [7] was “Active” in each case. The results for the Activity result in series [5] and in series [6] were “Non-Toxic” and “Dose-Dependent Effect”, respectively.
